Test results: patent US20250059187A1, “COVALENTLY BINDING INHIBITORS OF G12S, G12D AND/OR G12E MUTANTS OF K-RAS GTPASE” (The Regents of the University of California, priority 2021, published 2025)

Experiments:
[1] = system: parental Ba/F3 cells (with IL-3); experiment: Cell viability assay (CellTiter-Glo), parental Ba/F3 cells; type: cell-based, murine; conditions: Mus musculus, BaF3; +10 ng/mL IL-3, 72 h; read-out: IC50, growth of parental Ba/F3 cells
Method: (§1) Cells were seeded into 96-well white flat bottom plates (1,000 cells/well) (Corning) and incubated overnight. […] Cell viability was assessed using a commercial CellTiter-Glo (CTG) luminescence-based assay (Promega). Briefly, the 96-well plates were equilibrated to room temperature before the addition of diluted CTG reagent […] (1:4 CTG reagent:PBS). Plates were placed on an orbital shaker for 30 min before recording luminescence using a Spark 20M (Tecan) plate reader.

K-Ras G12E = target: T1, K-Ras G12E (Homo sapiens, UniProt P01116, G12E); experiment: Covalent modification of test protein after incubation with compound; type: binding; conditions: 24-h incubation with 100 μM compound at 23° C. at pH 7.5
T1 construct: human K-Ras (G12E, aa 1-169); 6xHis tag + TEV cleavage site (N, cleaved yes); made in house; host or cells: E. coli BL21(DE3)

K-Ras G12D = target: T2, K-Ras G12D (Homo sapiens, UniProt P01116, G12D); experiment: as above; type: binding; conditions: 24-h incubation with 100 μM compound at 23° C. at pH 7.5
T2 construct: human K-Ras (G12D, aa 1-169); 6xHis tag + TEV cleavage site (N, cleaved yes); made in house; host or cells: E. coli BL21(DE3)

[2] = system: cell lines with confirmed KRAS p.G12S mutations; experiment: Immunoblot in four cell lines with confirmed KRAS p.G12S mutations; type: cell-based; conditions: 10 μM, 2 h
Method: Cells were passed for at least two generations after cryorecovery before they were used for assays. All cell lines were tested mycoplasma negative using MycoAlert™ Mycoplasma Detection Kit (Lonza). When indicated, cells were treated with drugs at 40-60% confluency at a final DMSO concentration of 1%. At the end of treatment period, cells were placed on ice. Unless otherwise indicated, adherent cells were washed once with ice-cold PBS (1 mL), scraped with a spatula, and pelleted by centrifugation (500×g, 5 min). Suspension cells were pelleted by centrifugation (500×g, 5 min), washed with 1 mL ice-cold PBS, and pelleted again. Cells were lysed in RIPA buffer supplemented with protease and phosphatase inhibitors (cOmplete and phosSTOP, Roche) on ice for 10 min. For RBD pulldown experiments, cells were lysed in Co-IP Lysis Buffer in lieu of RIPA buffer. Lysates were clarified by high-speed centrifugation (19,000×g, 10 min). Concentrations of lysates were determined with protein BCA assay (Thermo Fisher) and adjusted to 2 mg/mL with additional RIPA buffer (or Co-IP Lysis Buffer). […]
Unless otherwise noted, SDS-PAGE was run with Novex 16% Bis-Tris gel (Invitrogen) in MES running buffer (Invitrogen) at 200 V for 60 min following the manufacturer's instructions. […] The membrane was washed three times with TBST (5 min each wash) and imaged on a Li-COR Odyssey fluorescence imager.

wild type K-Ras = target: T3, wild type K-Ras (Homo sapiens, UniProt P01116); experiment: Covalent modification of recombinant wild-type K-Ras by whole-protein mass spectrometry; type: binding; conditions: 24-h incubation, 100 μM compound, 23° C., pH 7.5
T3 construct: human K-Ras (wildtype, aa 1-169); 6xHis tag + TEV cleavage site (N, cleaved yes); made in house; host or cells: E. coli BL21(DE3)

[3] = system: Ba/F3:K-Ras(G12S) cells (without IL-3); experiment: Cell viability assay (CellTiter-Glo), Ba/F3:K-Ras(G12S) cells; type: cell-based, murine
Method: as §1

- % covalent modification of K-Ras G12E (K-Ras G12E): 0%
- % covalent modification of K-Ras G12D (K-Ras G12D): 0%
- % covalent modification of wild type K-Ras (wild type K-Ras): 0%
- IC50 ([3]; Mus musculus, BaF3, no IL-3, 72 h, read-out: IC50, growth of K-Ras(G12S)-transduced Ba/F3 cells): 2.4 µM
SMILES: O=C1O[C@H]2CN(c3nc(OCC45CCCN4CCC5)nc4c(F)c(-c5cccc6cccc(Cl)c56)ncc34)CC[C@@H]12 [5′]
- IC50 [1]: 12.5 µM
- phospho-ERK level and K-Ras gel mobility [2]: reduction of phospho-ERK level and gel mobility shift of the K-Ras protein
- selectivity, Ba/F3:K-Ras(G12S) over parental Ba/F3 cells [3]: five-fold
